Data reported in patent US20140080907A1, “LIVER REGENERATION ACCELERATOR COMPRISING BETAINE” (SNU R&DB FOUNDATION, priority 2009, published 2014).
Marks after values point to notes of the source that are not given here.

Legend:
cyclin D1 = assay: Cyclin D1 expression in liver after partial hepatectomy (Western blotting); format: in vivo, rat
Procedure: (§1) Male Sprague Dawley rats were purchased from Central Lab. Animal Inc., Korea. Test animals were adapted to an animal facility where temperature was maintained at 22±2° C., humidity at 55±5%, and artificial illumination was provided for 12 hours a day, at least for a week before being used in the experiment. The rats weighed 230-260 g at the time when partial hepatectomy was performed. Filtered tap water and solid regular rat chow were provided freely. For the animal group that was supposed to be treated with betaine, betaine purchased from Sigma, USA, was dissolved in filtered tap water at the concentration of 1% and provided to the group as drinking water. Betaine was administered after partial hepatectomy was conducted. In some experiments, betaine containing drinking water was provided to the animal group from 2 weeks before partial hepatectomy to increase the effect of betaine.
(§2) Partial hepatectomy was performed according to the method originally introduced by Higgins and Anderson (Arch Path, 12; 186, 1931). The rat was anesthetized lightly with ether, and then the middle line of abdomen was incised approximately 3 cm. First, the skin was cut and then abdominal muscle was incised carefully not to damage internal organs. The incised upper part was lifted up by using a pincette to cut the connective tissues connected with diaphragm supporting liver tissue using scissors. Light pressure was applied to the surrounding area of the incision line to expose median lobe and left lateral lobe taking about 70 volume % of the total hepatic lobes. Connective tissues of each hepatic lobe were carefully removed and tied with suture to close the blood vessel, followed by elimination of the exposed hepatic lobe. Muscles and skin of the incised area were stitched up with suture. The incised area was sterilized with 70% ethyl alcohol to prevent infection. For the control group, abdominal incision was simply performed and then stitched up (Sham).
(§3) Cytosolic fraction was prepared from the excised liver using the standard method. The protein of cytosol was separated by SDS-PAGE, followed by electroblotting, and then transferred to nitrocellulose membrane. The membrane was treated with PBS-T buffer containing 5% nonfat milk at 4° C. for overnight. The nitrocellulose membrane was reacted with the primary antibody diluted with 5% bovine serum albumin. The primary antibodies used herein were mouse monoclonal anti-cyclin D1 serum (Santa Cruz Biotechnology, CA, U.S.A.) and rabbit polyclonal anti-human PCNA (Santa Cruz Biotechnology, CA, U.S.A.). After washing twice with PBS-T, the membrane was treated with the secondary antibody horseradish peroxidase-conjugated goat anti-rabbit IgG (Pierce Biotechnology, Rockford, Ill., U.S.A.). […]

resected liver = assay: Liver weight increase in the rat after 2/3 partial hepatectomy or sham laparotomy; format: in vivo, Male Sprague Dawley rats
Procedure: Male Sprague Dawley rats were purchased from Central Lab. Animal Inc., Korea. Test animals were adapted to an animal facility where temperature was maintained at 22±2° C., humidity at 55±5%, and artificial illumination was provided for 12 hours a day, at least for a week before being used in the experiment. The rats weighed 230-260 g at the time when partial hepatectomy was performed. Filtered tap water and solid regular rat chow were provided freely. For the animal group that was supposed to be treated with betaine, betaine purchased from Sigma, USA, was dissolved in filtered tap water at the concentration of 1% and provided to the group as drinking water. Betaine was administered after partial hepatectomy was conducted. In some experiments, betaine containing drinking water was provided to the animal group from 2 weeks before partial hepatectomy to increase the effect of betaine. Partial hepatectomy was performed according to the method originally introduced by Higgins and Anderson (Arch Path, 12; 186, 1931). The rat was anesthetized lightly with ether, and then the middle line of abdomen was incised approximately 3 cm. First, the skin was cut and then abdominal muscle was incised carefully not to damage internal organs. The incised upper part was lifted up by using a pincette to cut the connective tissues connected with diaphragm supporting liver tissue using scissors. Light pressure was applied to the surrounding area of the incision line to expose median lobe and left lateral lobe taking about 70 volume % of the total hepatic lobes. Connective tissues of each hepatic lobe were carefully removed and tied with suture to close the blood vessel, followed by elimination of the exposed hepatic lobe. Muscles and skin of the incised area were stitched up with suture. The incised area was sterilized with 70% ethyl alcohol to prevent infection. For the control group, abdominal incision was simply performed and then stitched up (Sham). Male rats were randomly divided into 4 groups of 4 rats each. Group 1, the control group, had laparotomy alone without damaging internal organs and then the opening was sealed (Sham group). Group 2 was treated with betaine after laparotomy (Sham+Betaine group). Group 3 had two-thirds (⅔) partial hepatectomy (PH group), and Group 4 was treated with betaine after ⅔ partial hepatectomy (PH+Betaine group). For the administration of betaine to the groups that had laparotomy only or partial hepatectomy, 1% betaine solution was provided as drinking water. For other groups, filtered tap water was provided as drinking water. In Table 1, the values on day 0 indicate the relative liver weight (liver/weight percentage) in the normal rats not having the surgery. Each group was composed of 4 rats except that 8 rats were used for the calculation for day 0 values. Value is mean±standard deviation. * Statistically significant difference between the group treated with betaine and the group without betaine treatment (Student's t-test, P<0.05). […] SH: Sham, PH: Partial hepatectomy. The number in parenthesis indicates % to the SH group.

[1] = Serum hepatotoxic parameters (AST, ALT) in rats after hepatectomy; format: in vivo, Male Sprague Dawley rats; conditions: for ALT / AST: serum, end of experiment
Procedure: as §1, §2
Alanine aminotransferase (ALT) activity and aspartate aminotransferase (AST) activity were measured by the method of Reitman and Frankel (Amer J Clin Pathol 28; 56, 1957) using spectrophotometer. ALT, AST substrate solutions and an aliquot of serum were added to a test tube, followed by incubation at 37° C. Upon completion of the reaction, the color developing agent and 0.4 N NaOH were added thereto, followed by measurement of absorptivities at 520 nm. The activity of each enzyme was calculated based on the standard calibration curve generated by using pyruvate as a substrate.
Male rats were randomly divided into 4 groups of 4 rats each. Group 1, the control group, had laparotomy alone without damaging internal organs and then the opening was sealed (Sham group). Group 2 was treated with betaine after laparotomy (Sham+Betaine group). Group 3 had two-thirds (⅔) partial hepatectomy (PH group), and Group 4 was treated with betaine after ⅔ partial hepatectomy (PH+Betaine group). For the administration of betaine to the groups that had laparotomy only or partial hepatectomy, 1% betaine solution was provided as drinking water. For other groups, filtered tap water was provided as drinking water.
At the end of the experiment, hepatotoxic parameters in serum were measured.
In Table 2, each group was composed of 4 rats. Value is mean±standard deviation. Statistically significant difference was not shown between different groups (Oneway ANOVA followed by Neuman Keul Multiple range test, P>0.05).

[2] = system: PCNA (proliferating cell nuclear antigen); assay: PCNA expression in liver after partial hepatectomy (Western blotting); format: in vivo, rat; conditions: for PCNA expression, increase compared with tap water group: 1% betaine from 2 weeks before hepatectomy; for PCNA expression compared with tap water group: 1% betaine in drinking water after hepatectomy
Procedure: as §1, §2, §3

[3] = 2/3 partial hepatectomy + 1% betaine in drinking water after surgery, day 7
[4] = Sham + 1% betaine in drinking water
[5] = partial hepatectomy + 1% betaine in drinking water

For `C[N+](C)(C)CC(=O)[O-]` [Betaine, trimethylglycine], the “cyclin D1 expression, higher than tap water group” value (cyclin D1; betaine from 2 weeks before hepatectomy, 12th hour after hepatectomy (FIG. 2)) was 50%, the “cyclin D1 expression compared with tap water group” value (cyclin D1; betaine from 2 weeks before hepatectomy, 24 hours after hepatectomy (FIG. 2)) was “remained elevated” and the “cyclin D1 expression compared with tap water group” value (cyclin D1; betaine from 2 weeks before hepatectomy, 48 hours after hepatectomy (FIG. 2)) was “difference between the two groups disappeared”. The “cyclin D1 expression compared with tap water group” value (cyclin D1; normal rats without hepatectomy, betaine in drinking water, 0 hour (FIG. 2)) was “no significant difference”, the “relative liver weight (liver/weight percentage)” value (resected liver; 2/3 partial hepatectomy + 1% betaine in drinking water after surgery, day 1) was 1.47 ± 0.05% and the “relative liver weight (liver/weight percentage)” value (resected liver; 2/3 partial hepatectomy + 1% betaine in drinking water after surgery, day 2) was 1.98 ± 0.05* %. For the same compound, the “relative liver weight (liver/weight percentage)” value (resected liver; [3]) was 3.17 ± 0.06*, a %, the “relative liver weight, % to the SH group” value (resected liver; [3]) was “(94%)” and the “relative liver weight, % to the SH group” value (resected liver; 2/3 partial hepatectomy + 1% betaine in drinking water after surgery, day 7, listed as betaine) was 94%. The “relative liver weight (liver/weight percentage)” value (resected liver; Sham (laparotomy only) + 1% betaine in drinking water, day 7) was 3.30 ± 0.10a %, the “relative liver weight (liver/weight percentage)” value (resected liver; Sham (laparotomy only) + 1% betaine in drinking water, day 7, listed as betaine) was “did not affect the relative liver weight” and the “relative liver weight, % to the SH group” value (resected liver; Sham + 1% betaine in drinking water, day 7) was “(98%)”. The “effect on serum AST and ALT activities” value ([1]; 1% betaine in drinking water, sham or hepatectomized rats) was “did not affect serum AST and ALT activities”, the ALT [1, 4] was 22 ± 2 units/ml and the AST [1, 4] was 83 ± 3 units/ml. For the same compound, the ALT [1, 5] was 27 ± 2 units/ml, the AST [1, 5] was 78 ± 11 units/ml and the “PCNA expression, increase compared with tap water group” value ([2]; 24 hours after hepatectomy (FIG. 1b)) was 190%. The “PCNA expression, increase compared with tap water group” value ([2]; 48 hours after hepatectomy (FIG. 1b)) was 150%, the “PCNA expression compared with tap water group” value ([2]; 24 hours (FIG. 1a)) was “significantly increased” and the “PCNA expression compared with tap water group” value ([2]; 48 hours (FIG. 1a)) was “significantly increased”.
